Earlier results on four compounds are cited in PMC8245892, “Pharmacokinetics of a Single Dose of Turmeric Curcuminoids Depends on Formulation: Results of a Human Crossover Study” (The Journal of Nutrition, 2021).

Details of series [1]: method as in PMID 24280069.
In another series the test system is NF-κB. On the set-up: method as in PMID 24280069.
Series [2] concerns phorbol ester–induced PGE2 production. The arrangement: method as in PMID 11221833. Particulars: human cells; compared with unconjugated curcumin.
The conditions of series [3]: aqueous buffer (pH 5.0).

Where a name gives a salt, the structure may show the parent alone.

For `COc1cc(C=CC(=O)CC(=O)C=Cc2ccc(OC3OC(C(=O)O)C(O)C(O)C3O)c(OC)c2)ccc1OC1OC(C(=O)O)C(O)C(O)C1O` (stereo not drawn) [diglucuronide], the Antiproliferative activity result in series [1] was “very little antiproliferative activity”. In addition, the “Effect on NF-κB” value in the series with NF-κB is listed as “no effect”.

On to `COc1cc(/C=C/C(O)=C/C(=O)/C=C/c2ccc(OS(=O)(=O)O)c(OC)c2)ccc1O` [curcumin sulfate], for which the “Reduction of phorbol ester–induced PGE2 production” value in series [2] is “less effective than unconjugated curcumin”.

Broadly, the Solubility is the concentration that dissolves in the medium under given conditions. As to curcumin, the Solubility in series [3] was 0.011 µg/mL.

Turning to `COc1cc(/C=C/C(O)=C/C(=O)/C=C/c2ccc(O[C@@H]3O[C@H](C(=O)O)[C@@H](O)[C@H](O)[C@H]3O)c(OC)c2)ccc1O` [curcumin monoglucuronide], in series [1], the Antiproliferative activity result is listed as “very little antiproliferative activity”. Further, in the series with NF-κB, the “Effect on NF-κB” value is recorded as “no effect”.
